US20240009173A1, “Use of 5-HT3-Targeting Drugs for Treatment of Acute Kidney Injury” (priority 2020, published 2024)
Where two headings read alike, the source gives them in different places.

What was measured:
[1] = tested on: all ICU patients; conditions: cited from earlier work
[2] = tested on: patients with AKI; conditions: human, in vivo
[3] = tested on: ICU patients with AKI; conditions: cited from earlier work
[4] = tested on: ICU patients; assay: Anti-emetic use and in-ICU death, logistic regression (Example 3); assay type: in vivo, human; conditions: outcome in-ICU death
[5] = tested on: patients without AKI on admission or prior to receiving drug; assay: Anti-emetic usage and AKI risk in first ICU encounter: usage, max KDIGO category, binary logistic regression (Example 3); assay type: in vivo, human; conditions: for MAX KDIGO AKI Category 0 (%) / MAX KDIGO AKI Category 0, number of patients / MAX KDIGO AKI Category 1 (%) / MAX KDIGO AKI Category 1, number of patients / MAX KDIGO AKI Category 2 (%) / MAX KDIGO AKI Category 2, number of patients / MAX KDIGO AKI Category 3 (%) / MAX KDIGO AKI Category 3, number of patients: drug users, use before discharge/death or before AKI
Excerpt: Study Population: The study population excludes patients with end-stage kidney disease and excludes patients with Acute Kidney Injury on admission or prior to receiving drug. […] Metoclopramide is primarily a dopamine D2 receptor antagonist anti-emetic. […] Prochlorperazine is primarily a dopamine receptor antagonist anti-emetic. […] This was a binary logistic regression with an outcome of experiencing any AKI within a first ICU encounter. The independent variable was use of anti-emetic prior to AKI (or before discharge if no AKI). […] The independent variable was use of anti-emetic prior to AKI (or before discharge if no AKI). […] The outcome was experiencing any AKI. The […] was the use of medication within the average time prior to AKI.

[6] = tested on: patients with AKI; conditions: human, in vivo; remark: listed apart in the source
[7] = tested on: patients with AKI; set-up: species or system human; conditions: in vivo
[8] = tested on: Fridericia-corrected QTc interval; conditions: 32 mg, 15 minute infusion, cited from earlier work
[9] = tested on: Intestine of rats; conditions: cited from earlier work
[10] = tested on: patients with AKI; assay: Validation in eICU database: propensity score matching, chi-square test of ICU mortality (Example 4); assay type: in vivo, human
[11] = literature and/or clinical trials
[12] = use of medication within average time prior to AKI
[13] = use within average time prior to AKI and Apache Score on ICU admission
[14] = outcome AKI Category 2 or 3 vs Category 0 or 1, use of anti-emetic prior to AKI (or before discharge)
[15] = outcome any AKI within first ICU encounter, use of anti-emetic prior to AKI (or before discharge if no AKI)
[16] = outcome any AKI, use of medication within the average time prior to AKI
[17] = 84 mg-kg in water by oral gavage 0.25d vs vehicle
[18] = gene negatively correlated with eGFR in human AKI cohort
[19] = rat intestine, 84 mg-kg oral gavage, 0.25d vs vehicle
[20] = after matching, 3423 patients in group

For `CCN(CC)CCNC(=O)c1cc(Cl)c(N)cc1OC` [Metoclopramide], the “Reported for protecting effect in all ICU patients” value (“Reported … in all ICU patients” for short) [1, 11] is given as “N”, the “Death rate in MIMIC III database” value [2] is given as 248.67 per 1,000 patients and the “Reported for protecting effect in ICU patients with AKI” value (from here on “Reported … with AKI”) [3, 11] is given as “N”. For the same molecule, the “Odds Ratio” value [4, 12] was 1.270, the “Odds Ratio” value [4, 13] was 1.08 and the “MAX KDIGO AKI Category 0 (%)” value [5] was “(72.54) %”. The “MAX KDIGO AKI Category 0, number of patients” value [5] was 3,830, the “MAX KDIGO AKI Category 1 (%)” value [5] was “(14.05) %” and the “MAX KDIGO AKI Category 1, number of patients” value [5] was 742. The “MAX KDIGO AKI Category 2 (%)” value [5] was “(6.91) %”, the “MAX KDIGO AKI Category 2, number of patients” value [5] was 365 and the “MAX KDIGO AKI Category 3 (%)” value [5] was “(6.50) %”. For the same molecule, the “MAX KDIGO AKI Category 3, number of patients” value [5] was 343, the “Odds Ratio” value [5, 14] was 1.033 and the “Odds Ratio” value [5, 15] was 0.408. For the same molecule, the “Odds Ratio” value [5, 16] was 1.249 and the “Death rate in eICU database” value [6] was 158.32 per 1,000 patients.
In the case of `Cc1ncc2n1-c1ccc(Cl)cc1C(c1ccccc1F)=NC2` [Midazolam], the Coefficient [7] is given as 0.027, the “Reported … in all ICU patients” value [1] is given as “Y^20” and the “Death rate in MIMIC III database” value [2] is given as 899.95 per 1,000 patients. The “Reported … with AKI” value [3] was “N” and the “Death rate in eICU database” value [6] was 273.07 per 1,000 patients.
For `CN1CC[C@]23c4c5ccc(O)c4O[C@H]2[C@@H](O)C=C[C@H]3[C@H]1C5` [Morphine], the Coefficient [7] is listed as 0.198, the “Reported … in all ICU patients” value [1] is listed as “Y^1” and the “Death rate in MIMIC III database” value [2] is listed as 376.48 per 1,000 patients. For the same molecule, the “Reported … with AKI” value [3] was “N” and the “Death rate in eICU database” value [6] was 234.81 per 1,000 patients.
In the case of `NC[C@H](O)c1ccc(O)c(O)c1` [Norepinephrine], the Coefficient [7] is given as 0.167, the “Reported … in all ICU patients” value [1, 11] is given as “Y^2” and the “Death rate in MIMIC III database” value [2] is given as 497.51 per 1,000 patients. The “Reported … with AKI” value [3, 11] was “N” and the “Death rate in eICU database” value [6] was 336.62 per 1,000 patients.
For `Cc1nccn1CC1CCc2c(c3ccccc3n2C)C1=O` (centres unmarked) [Ondansetron], the Coefficient [7] is listed as −0.035, the “Reported … in all ICU patients” value [1, 11] is listed as “N” and the “Death rate in MIMIC III database” value [2] is listed as 140.91 per 1,000 patients. For the same molecule, the average death rate [2] was 14.1%, the “maximum mean (upper limit of 90% CI) difference in QTcF from placebo after baseline-correction” value ([8]; at 20 minutes) was 19.6 (21.5) msec and the “period in which prolongation of QTcF was observed after start of infusion” value [8] was 15 to 240 min. The “Reported … with AKI” value [3, 11] was “N”, the “Odds Ratio” value [4, 12] was 0.460 and the “MAX KDIGO AKI Category 0 (%)” value [5] was 73.54%. For the same molecule, the “MAX KDIGO AKI Category 0, number of patients” value [5] was 32,447, the “MAX KDIGO AKI Category 1 (%)” value [5] was 13.92% and the “MAX KDIGO AKI Category 1, number of patients” value [5] was 6,143. For the same molecule, the “MAX KDIGO AKI Category 2 (%)” value [5] was 6.68%, the “MAX KDIGO AKI Category 2, number of patients” value [5] was 2,946 and the “MAX KDIGO AKI Category 3 (%)” value [5] was 5.87%. For the same molecule, the “MAX KDIGO AKI Category 3, number of patients” value [5] was 2,588, the “Odds Ratio” value [5, 15] was 0.403 and the “Odds Ratio” value [5, 16] was 0.906. The “Odds Ratio” value ([5]; outcome any AKI, use of medication within the average time prior to AKI, listed as ondansetron) was “protective”, the “Death rate in eICU database” value [6] was 124.87 per 1,000 patients and the “Genes (differentially expressed genes in bioset)” value [9, 17] was 1,815. For the same molecule, the down-regulated genes [9, 17] was 722, the up-regulated genes [9, 17] was 1,093 and the “Gene expression fold change by Ondansetron treatment: AMACR” value [9, 18] was −2.38. The “Gene expression fold change by Ondansetron treatment: CASP1” value [9, 18] was −8.03, the “Gene expression fold change by Ondansetron treatment: CPD” value [9, 18] was −2.4 and the “Gene expression fold change by Ondansetron treatment: GBP2” value [9, 18] was −4.71. The “Gene expression fold change by Ondansetron treatment: KPNA2” value [9, 18] was 1.68, the “Gene expression fold change by Ondansetron treatment: MCL1” value [9, 18] was −3.07 and the “Gene expression fold change by Ondansetron treatment: MET” value [9, 18] was −2.32. The “Gene expression fold change by Ondansetron treatment: TFPI” value [9, 18] was 4.25, the “gene expression fold change: Axin2” value [9, 19] was 2.12 and the “gene expression fold change: Birc2” value [9, 19] was −2.85. The “gene expression fold change: Casp3” value [9, 19] was −4.18, the “gene expression fold change: Cdc42” value [9, 19] was −1.7 and the “gene expression fold change: Cdkn2b” value [9, 19] was −3.79. For the same molecule, the “gene expression fold change: Crk” value [9, 19] was −2.78, the “gene expression fold change: Ctbp2” value [9, 19] was −10.3 and the “gene expression fold change: Ctnna1” value [9, 19] was −2.95. For the same molecule, the “gene expression fold change: Ctnnb1” value [9, 19] was −6.88, the “gene expression fold change: Cycs” value [9, 19] was −2.08 and the “gene expression fold change: Erbb2” value [9, 19] was −2.24. For the same molecule, the “gene expression fold change: Fn1” value [9, 19] was −10.3, the “gene expression fold change: Gsk3b” value [9, 19] was 2.3 and the “gene expression fold change: Hdac1” value [9, 19] was 1.52. For the same molecule, the “gene expression fold change: Itgb1” value [9, 19] was −3.18, the “gene expression fold change: Jak1” value [9, 19] was −10.7 and the “gene expression fold change: Kras” value [9, 19] was −2.58. The “gene expression fold change: Lamb2” value [9, 19] was −4.03, the “gene expression fold change: Mapk1” value [9, 19] was −4.09 and the “gene expression fold change: Mapk3” value [9, 19] was −1.98. For the same molecule, the “gene expression fold change: Mapk9” value [9, 19] was −5.48, the “gene expression fold change: Mecom” value [9, 19] was 1.46 and the “gene expression fold change: Met” value [9, 19] was −2.32. For the same molecule, the “gene expression fold change: Msh2” value [9, 19] was −2.29, the “gene expression fold change: Mtor” value [9, 19] was −1.75 and the “gene expression fold change: Pdgfrb” value [9, 19] was 1.49. The “gene expression fold change: Pik3r1” value [9, 19] was −3.77, the “gene expression fold change: Plcg2” value [9, 19] was −1.63 and the “gene expression fold change: Pld1” value [9, 19] was −5.95. The “gene expression fold change: Prkcb” value [9, 19] was −3.73, the “gene expression fold change: Pten” value [9, 19] was −4.92 and the “gene expression fold change: Raf1” value [9, 19] was 1.51. For the same molecule, the “gene expression fold change: Rb1” value [9, 19] was −9.02, the “gene expression fold change: Smo” value [9, 19] was −2.45 and the “gene expression fold change: Sos2” value [9, 19] was 2.47. For the same molecule, the “gene expression fold change: Tgfa” value [9, 19] was −3.86, the “gene expression fold change: Tgfb1” value [9, 19] was −1.54 and the “gene expression fold change: Tgfb3” value [9, 19] was 1.83. The “gene expression fold change: Tpr” value [9, 19] was −1.93, the “Alive (patients)” value [10, 20] was 2993 and the “Death (patients)” value [10, 20] was 430. The ICU mortality ([10]; after propensity score matching, 3,423 patients per group) was 12.56% and the “Number Need to Treat (NNT)” value ([10]; eICU patients, 95% confidence interval 23.61, 103.72) was 38.46.
For `COc1ccc2c3c1O[C@H]1C(=O)CC[C@@]4(O)[C@@H](C2)N(C)CC[C@]314` [Oxycodone], the Coefficient [7] is given as −0.089, the “Reported … in all ICU patients” value [1] is given as “Y^9” and the “Death rate in MIMIC III database” value [2] is given as 94.98 per 1,000 patients. The “Reported … with AKI” value [3] was “N” and the “Death rate in eICU database” value [6] was 55.56 per 1,000 patients.
For `CN1CCN(CCCN2c3ccccc3Sc3ccc(Cl)cc32)CC1` [Prochlorperazine], the “Odds Ratio” value [4, 12] was 0.736, the “Odds Ratio” value [4, 13] was 0.879 and the “MAX KDIGO AKI Category 0 (%)” value [5] was “(73.48) %”. For the same molecule, the “MAX KDIGO AKI Category 0, number of patients” value [5] was 2,488, the “MAX KDIGO AKI Category 1 (%)” value [5] was “(14.77) %” and the “MAX KDIGO AKI Category 1, number of patients” value [5] was 500. For the same molecule, the “MAX KDIGO AKI Category 2 (%)” value [5] was “(5.88) %”, the “MAX KDIGO AKI Category 2, number of patients” value [5] was 199 and the “MAX KDIGO AKI Category 3 (%)” value [5] was “(5.88) %”. The “MAX KDIGO AKI Category 3, number of patients” value [5] was 199, the “Odds Ratio” value [5, 14] was 0.90 and the “Odds Ratio” value [5, 15] was 0.457. The “Odds Ratio” value [5, 16] was 0.988.
In the case of `CC(=O)CC(c1ccccc1)c1c(O)c2ccccc2oc1=O` (centres unmarked) [Warfarin], the Coefficient [7] is listed as −0.115, the “Reported … in all ICU patients” value [1, 11] is listed as “Y^1” and the “Death rate in MIMIC III database” value [2] is listed as 67.31 per 1,000 patients. The “Reported … with AKI” value [3, 11] was “N” and the “Death rate in eICU database” value [6] was 35.34 per 1,000 patients.
In the case of Heparin, the Coefficient [7] is listed as −0.053, the “Reported … in all ICU patients” value [1, 11] is listed as “Y^10” and the “Death rate in MIMIC III database” value [2] is listed as 210.41 per 1,000 patients. For the same molecule, the “Reported … with AKI” value [3, 11] was “N” and the “Death rate in eICU database” value [6] was 143.03 per 1,000 patients.
